US20180057462A1, “Substituted 2-difluoromethyl-nicotin(thio)carboxanilide derivatives and their use as fungicides” (BAYER CROPSCIENCE AKTIENGESELLSCHAFT, priority 2015, published 2018)

Assay: LogP by HPLC on reversed phase columns (EEC directive 79/831 Annex V.A8), method [a]
Assay type: physicochemical
Conditions: LC-UV, acidic range, 0.1% formic acid in water and acetonitrile as eluent (linear gradient 10% to 95% acetonitrile)

Row | Compound | LogP[a]
1 | Cc1c(NC(=O)c2cccnc2C(F)F)cccc1OC(C)Cc1ccc(Cl)cc1 (stereo not drawn) [Example 67] | 3.90
2 | Cc1c(NC(=O)c2cccnc2C(F)F)cccc1OCC(C)C [Example 13] | 3.17
3 | C#CCOCC(C)Oc1cccc(NC(=O)c2cccnc2C(F)F)c1C (stereo not drawn) [Example 21] | 2.47
4 | Cc1c(NC(=O)c2cccnc2C(F)F)cccc1OC(C)c1cccc(C(F)(F)F)c1 (stereo not drawn) [Example 53] | 3.70
5 | O=C(Nc1cccc(-c2ccccc2Cl)c1Cl)c1cccnc1C(F)F [Example 7] | 3.22
6 | Cc1c(NC(=O)c2cccnc2C(F)F)cccc1OCc1ccccc1C(F)(F)F [Example 39] | 3.55
7 | O=C(Nc1cccc(-c2ccc(Cl)cc2)c1Cl)c1cccnc1C(F)F [Example 9] | 3.54
8 | Cc1c(NC(=O)c2cccnc2C(F)F)cccc1OCc1cc(Cl)ccc1Cl [Example 43] | 3.85
9 | Cc1c(NC(=O)c2cccnc2C(F)F)cccc1OC(C)Cc1cccs1 (stereo not drawn) [Example 72] | 3.37
10 | Cc1c(NC(=O)c2cccnc2C(F)F)cccc1OC(C)C1(Cl)CC1 (stereo not drawn) [Example 25] | 3.06
11 | CCC(C)Oc1cccc(NC(=O)c2cccnc2C(F)F)c1C (stereo not drawn) [Example 11] | 3.02
12 | Cc1c(NC(=O)c2cccnc2C(F)F)cccc1OCc1ccccc1F [Example 41] | 3.06
13 | Cc1c(NC(=O)c2cccnc2C(F)F)cccc1OCCc1ccc(Cl)cc1 [Example 66] | 3.68
14 | Cc1c(NC(=O)c2cccnc2C(F)F)cccc1OCc1cccc(C(F)(F)F)c1 [Example 38] | 3.52
15 | Cc1c(NC(=O)c2cccnc2C(F)F)cccc1OCc1cc(Cl)cc(Cl)c1 [Example 42] | 3.96
16 | Cc1c(NC(=O)c2cccnc2C(F)F)cccc1OC(C)COc1cccc(Cl)c1 (stereo not drawn) [Example 34] | 3.76
17 | Cc1c(NC(=O)c2cccnc2C(F)F)cccc1OCc1cccc(Br)c1 [Example 54] | 3.52
18 | O=C(Nc1cccc(-c2ccccc2F)c1Cl)c1cccnc1C(F)F [Example 4] | 2.99
19 | Cc1c(NC(=O)c2cccnc2C(F)F)cccc1OCCc1cccc(F)c1 [Example 61] | 3.29

Row | Compound | LogP[a]
20 | Cc1c(NC(=O)c2cccnc2C(F)F)cccc1OCCC1CC1 [Example 26] | 3.17
21 | Cc1c(NC(=O)c2cccnc2C(F)F)cccc1OC(C)c1cc(Cl)ccc1Cl (stereo not drawn) [Example 56] | 4.15
22 | Cc1c(NC(=O)c2cccnc2C(F)F)cccc1OCCc1ccccc1Cl [Example 64] | 3.65
23 | Cc1ccccc1OCC(C)Oc1cccc(NC(=O)c2cccnc2C(F)F)c1C (stereo not drawn) [Example 32] | 3.74
24 | Cc1c(NC(=O)c2cccnc2C(F)F)cccc1OC(C)COc1ccccc1 (stereo not drawn) [Example 30] | 3.33
25 | Cc1c(NC(=O)c2cccnc2C(F)F)cccc1OC(C)Cc1ccccc1Cl (stereo not drawn) [Example 69] | 3.90
26 | Cc1c(NC(=O)c2cccnc2C(F)F)cccc1OCc1cccc(F)c1 [Example 40] | 3.09
27 | Cc1ccc(OCC(C)Oc2cccc(NC(=O)c3cccnc3C(F)F)c2C)cc1 (stereo not drawn) [Example 31] | 3.68
28 | Cc1c(NC(=O)c2cccnc2C(F)F)cccc1OC(C)C1CCOC1 (stereo not drawn) [Example 27] | 2.26
29 | Cc1c(NC(=O)c2cccnc2C(F)F)cccc1OCCc1ccccc1C(F)(F)F [Example 59] | 3.74
30 | Cc1c(NC(=O)c2cccnc2C(F)F)cccc1OCc1ccc(C(F)(F)F)cc1 [Example 73] | 3.57
31 | CCCC(CCC)Oc1cccc(NC(=O)c2cccnc2C(F)F)c1C [Example 12] | 4.26
32 | Cc1c(NC(=O)c2cccnc2C(F)F)cccc1OC(C)c1ccccc1Cl (stereo not drawn) [Example 50] | 3.79
33 | CCCOCC(C)Oc1cccc(NC(=O)c2cccnc2C(F)F)c1C (stereo not drawn) [Example 22] | 3.04
34 | Cc1c(NC(=O)c2cccnc2C(F)F)cccc1OC(C)c1ccc(Cl)cc1 (stereo not drawn) [Example 47] | 3.65
35 | Cc1c(NC(=O)c2cccnc2C(F)F)cccc1OCc1ccc(F)cc1 [Example 36] | 3.06
36 | Cc1c(NC(=O)c2cccnc2C(F)F)cccc1OC(C)c1ccc(F)cc1 (stereo not drawn) [Example 49] | 3.29
37 | O=C(Nc1cccc(-c2cccc(Cl)c2)c1Cl)c1cccnc1C(F)F [Example 8] | 3.49
38 | Cc1c(NC(=O)c2cccnc2C(F)F)cccc1OC(C)COC(C)(C)C (stereo not drawn) [Example 24] | 3.31

Other lines, results leading:

Row | LogP[a] | Compound
39 | 4.14 | Cc1c(NC(=O)c2cccnc2C(F)F)cccc1OCC1CCCCC1 [Example 77]
40 | 3.69 | Cc1cnc(C(F)F)c(C(=O)Nc2cccc(OC(C)c3ccccc3)c2C(F)(F)F)c1 (stereo not drawn) [Example 102]
41 | 2.53 | Cc1c(NC(=O)c2cccnc2C(F)F)cccc1C1CCCCO1 (stereo not drawn) [Example 80]
42 | 2.17 | Cc1c(NC(=O)c2cccnc2C(F)F)cccc1NC1CCCC1 [Example 107]
43 | 4.03 | CC(Oc1cccc(NC(=O)c2ccc(Cl)nc2C(F)F)c1C(F)(F)F)c1ccccc1 (stereo not drawn) [Example 103]
44 | 2.43 | Cc1c(COC(C)C)cccc1NC(=O)c1cccnc1C(F)F [Example 90]
45 | 3.94 | CCCCC(C)Oc1cccc(NC(=O)c2cccnc2C(F)F)c1C (stereo not drawn) [Example 86]
46 | 2.43 | Cc1c(NC(=O)c2cccnc2C(F)F)cccc1C1CC1 [Example 122]
47 | 3.46 | CC(C)Oc1cccc(NC(=O)c2ccc(Cl)nc2C(F)F)c1C(F)(F)F [Example 97]
48 | 3.13 | O=C(Nc1cccc(OCc2ccccc2)c1C(F)(F)F)c1cccnc1C(F)F [Example 100]
49 | 2.55 | Cc1c(NC(=O)c2cccnc2C(F)F)cccc1OCC(F)(F)F [Example 119]
50 | 3.21 | Cc1c(NC(=O)c2cccnc2C(F)F)cccc1OCC=C(Cl)Cl [Example 76]
51 | 1.98 | Cc1nc(C)c(-c2cccc(NC(=O)c3cccnc3C(F)F)c2C)s1 [Example 112]
52 | 3.33 | O=C(Nc1cccc(OC2CCCC2)c1C(F)(F)F)c1cccnc1C(F)F [Example 91]
53 | 4.31 | Cc1c(NC(=O)c2cccnc2C(F)F)cccc1C1CCCCC1(C)C (stereo not drawn) [Example 116]
54 | 0.79 | Cc1c(NC(=O)c2cccnc2C(F)F)cccc1N1CCCC1 [Example 104]
55 | 3.21 | Cc1c(NC(=O)c2cccnc2C(F)F)cccc1OC1CCCC1 [Example 75]
56 | 3.25 | Cc1c(NC(=O)c2cccnc2C(F)F)cccc1C1CCCC1 [Example 121]
57 | 4.06 | Cc1c(NC(=O)c2cccnc2C(F)F)cccc1OC(C)C1CCCC1 (stereo not drawn) [Example 85]
58 | 3.17 | CCC(C)Oc1cccc(NC(=O)c2cccnc2C(F)F)c1C(F)(F)F (stereo not drawn) [Example 94]
59 | 2.21 | Cc1c(NC(=O)c2cccnc2C(F)F)cccc1S(=O)(=O)C1CCCC1 [Example 105]
60 | 2.94 | Cc1c(NC(=O)c2cccnc2C(F)F)cccc1-c1csc(C(C)C)n1 [Example 114]
61 | 2.17 | Cc1c(NC(=O)c2cccnc2C(F)F)cccc1-c1cnn(C(C)C)c1 [Example 113]
62 | 2.80 | CC(C)Oc1cccc(NC(=O)c2cccnc2C(F)F)c1C(F)(F)F [Example 99]

Same assay, conditions: reversed phase HPLC column; LC-UV, acidic range, 0.1% formic acid in water and acetonitrile as eluent (linear gradient 10% to 95% acetonitrile)

Row | Compound | chromatographic logP
63 | CCCC(C)Oc1cccc(NC(=O)c2cccnc2C(F)F)c1C (stereo not drawn) [Example 79, 2-(difluoromethyl)-N-[2-methyl-3-(pentan-2-yloxy)phenyl]nicotinamide] | 3.48
